The values below come from ChEMBL document CHEMBL1152711, “Synthesis and SAR of potent LXR agonists containing an indole pharmacophore” (Bioorg Med Chem Lett, 2009).

Structures are written as SMILES. pEC50: −log10 of the molar value. Bounds are passed on as bounds.

Data set [1] concerns the target T1, Oxysterols receptor LXR-alpha (Homo sapiens, UniProt Q13133).
T1 sequence (Q13133 whole entry): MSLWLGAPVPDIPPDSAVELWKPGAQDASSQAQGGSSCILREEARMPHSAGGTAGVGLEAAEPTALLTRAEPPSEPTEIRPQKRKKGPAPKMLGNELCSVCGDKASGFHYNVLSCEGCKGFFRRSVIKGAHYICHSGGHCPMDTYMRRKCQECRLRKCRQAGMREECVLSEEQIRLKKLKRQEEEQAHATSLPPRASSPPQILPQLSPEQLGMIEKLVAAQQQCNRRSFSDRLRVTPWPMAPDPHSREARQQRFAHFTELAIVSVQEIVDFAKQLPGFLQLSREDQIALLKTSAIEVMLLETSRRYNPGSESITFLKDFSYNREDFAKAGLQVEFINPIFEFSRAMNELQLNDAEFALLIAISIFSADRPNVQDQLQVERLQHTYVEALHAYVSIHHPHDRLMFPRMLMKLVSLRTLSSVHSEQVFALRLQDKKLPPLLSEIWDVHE
Briefly: Agonist activity at LXRalpha by FRET assay. It counts as functional.

Data set [2] concerns the target T2, Oxysterols receptor LXR-alpha (Homo sapiens) (UniProt Q13133).
T2 sequence (whole entry): T1 sequence (Q13133 whole entry)
Briefly: Agonist activity at LXRalpha by FRET assay relative to GW-3965A. It counts as functional.

Data set [3] deals with T3, Oxysterols receptor LXR-beta (Homo sapiens, UniProt P55055).
T3 sequence (P55055 whole entry): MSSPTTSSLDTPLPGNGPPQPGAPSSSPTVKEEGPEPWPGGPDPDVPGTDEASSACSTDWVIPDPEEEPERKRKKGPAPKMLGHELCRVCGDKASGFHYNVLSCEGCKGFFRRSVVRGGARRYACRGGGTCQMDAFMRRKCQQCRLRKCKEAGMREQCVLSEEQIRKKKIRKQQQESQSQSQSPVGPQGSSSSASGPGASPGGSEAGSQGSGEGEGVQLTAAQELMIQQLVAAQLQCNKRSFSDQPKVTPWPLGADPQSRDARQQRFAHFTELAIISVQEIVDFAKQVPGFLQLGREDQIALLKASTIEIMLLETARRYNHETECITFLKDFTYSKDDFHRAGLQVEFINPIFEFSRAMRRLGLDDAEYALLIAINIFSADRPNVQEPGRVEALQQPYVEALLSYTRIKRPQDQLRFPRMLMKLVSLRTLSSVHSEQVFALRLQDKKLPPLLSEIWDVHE
Briefly: Agonist activity at LXRbeta by FRET assay. It counts as functional.

Data set [4] has as its target T4, Oxysterols receptor LXR-beta (Homo sapiens) (UniProt P55055).
T4 sequence (whole entry): T3 sequence (P55055 whole entry)
As to the kind of experiment: Agonist activity at LXRbeta by FRET assay relative to GW-3965A. It counts as functional. Details: concentration or dose not given beside the values.

The nature of data set [5]: Oral bioavailability in Sprague-Dawley rat at 2.1 mg/kg. It counts as ADME, organism-based. The settings on record: in vivo.
Data set [6] can be described thus: Half life in Sprague-Dawley rat at 2.1 mg/kg, po. Details: dose 2.1 mg/kg, route oral. It counts as ADME, organism-based. Conditions: in vivo.
Data set [7] is described as follows: Cmax in Sprague-Dawley rat at 2.1 mg/kg, po. It counts as ADME, organism-based. Also on record: dose 2.1 mg/kg, route oral. The settings on record: in vivo.
The species entered for a further data set is Mus musculus. As to the kind of experiment: Increase in ABCA1 expression in mouse macrophages by cholesterol efflux assay.
Data set [8] is described as follows: Half life in Sprague-Dawley rat at 1.1 mg/kg, iv. The settings on record: in vivo. Details: dose 1.1 mg/kg, route intravenous. It counts as ADME, organism-based.
The nature of data set [9]: Plasma clearance in Sprague-Dawley rat at 1.1 mg/kg, iv or 2.1 mg/kg, po. It counts as ADME, organism-based.
Data set [10] in a line: Volume of distribution at steady state in Sprague-Dawley rat at 1.1 mg/kg, iv or 2.1 mg/kg, po. It counts as ADME, organism-based. The settings on record: in vivo, read-out: Vdss.

In general, pEC50 refers to the negative decadic logarithm of the EC50, by convention in mol/L. One may read the bioavailability as dose-corrected exposure relative to a reference, in per cent. Usually half-life stands for the time in which the quantity being followed falls by half. A word on the Cmax: it is the maximum level reached in the sampled fluid or tissue.

Regarding `CS(=O)(=O)n1ccc2c(OCCCN(Cc3cccc(C(F)(F)F)c3Cl)CC(c3ccccc3)c3ccccc3)cccc21`, the results for the negative-log EC50 (pEC50) in [1] and in data set [3] were 7.70 and 8.15, respectively. Also, the Activity is 50% in data set [2] and 72% in data set [4].

With `FC(F)(F)c1cccc(CN(CCCOc2ccc3[nH]ccc3c2)CC(c2ccccc2)c2ccccc2)c1Cl`, the pEC50 in [1] is 6.65; in data set [3], 7.64. For the same compound, the Activity in data set [2] came out at 36%; in data set [4], 78%.

As for `COC(=O)c1cc(OCCCN(Cc2cccc(C(F)(F)F)c2Cl)CC(c2ccccc2)c2ccccc2)no1`, the pEC50 in data set [1] was 7.20; in [3], 7.59. For the same compound, the Activity turned out to be 65% in [2] and 68% in data set [4].

In data set [5], `O=C(O)Cn1ccc2c(OCCCN(Cc3cccc(C(F)(F)F)c3Cl)CC(c3ccccc3)c3ccccc3)cccc21` came in with a bioavailability of 45.4%. For the same compound, the half-life in data set [6] is 2.9 h; in data set [8], 1.35 h. Moreover, the maximum concentration (Cmax) in data set [7] was found to be 1810 ng/mL. Besides, the pEC50 in data set [1] is 7.85; in the data set filed under Mus musculus, 7.82; in [3], 8.40. Besides, the Activity in [2] worked out at 132%; in data set [4], 105%. Moreover, the clearance in [9] is 14.6 mL/min/kg. In addition, the Vd in data set [10] stood at 1.15 L/kg.

In the case of `Cc1cc(C)c2c(OCCCN(Cc3cccc(C(F)(F)F)c3Cl)CC(c3ccccc3)c3ccccc3)n[nH]c2n1`, the pEC50 is less than 5.52 in [1] and 6.29 in data set [3]. For the same compound, in [4], the Activity was 25%.

Consider `FC(F)(F)c1cccc(CN(CCCOc2n[nH]c3ccccc23)CC(c2ccccc2)c2ccccc2)c1Cl`, for which the figures for the pEC50 in data set [1] and in data set [3] were 6.96 and 7.22, respectively. Also, the results for the Activity in [2] and in data set [4] were 17% and 44%, respectively.

Turning to `Cc1cc(OCCCN(Cc2cccc(C(F)(F)F)c2Cl)CC(c2ccccc2)c2ccccc2)n[nH]1`, the results for the pEC50 in data set [1] and in data set [3] were 7.64 and 7.82, respectively. The results for the Activity in data set [2] and in data set [4] were 25% and 30%, respectively.

Turning to `COC(=O)Cc1c[nH]c2ccc(OCCCN(Cc3cccc(C(F)(F)F)c3Cl)CC(c3ccccc3)c3ccccc3)cc12`, the values for the pEC50 in [1] and in data set [3] were 6.20 and 6.54, respectively. Besides, the Activity in data set [2] turned out to be 19%; in data set [4] it was 36%.

`Cc1cc(OCCCN(Cc2cccc(C(F)(F)F)c2Cl)CC(c2ccccc2)c2ccccc2)n2ncnc2n1`: the pEC50 in data set [1] is 6.10; in data set [3] it was 6.25. The Activity in data set [2] amounted to 25%; in data set [4], 33%.

With `Cn1ccc2c(OCCCN(Cc3cccc(C(F)(F)F)c3Cl)CC(c3ccccc3)c3ccccc3)cccc21`, the values for the pEC50 in data set [1] and in data set [3] were 7.41 and 7.92, respectively. The Activity worked out at 57% in data set [2] and 86% in data set [4].

`FC(F)(F)c1cccc(CN(CCCOc2cccc3[nH]ccc23)CC(c2ccccc2)c2ccccc2)c1Cl`: the pEC50 in data set [1] is 7.22; in the data set filed under Mus musculus it was 8.30; in data set [3] it was 7.82. Also, the Activity came out at 90% in data set [2] and 104% in [4].

Take `O=C(O)Cc1cccc(OCCCN(Cc2cccc(C(F)(F)F)c2Cl)CC(c2ccccc2)c2ccccc2)c1`: the pEC50 is 7.30 in the data set listed under Mus musculus and 7.60 in data set [3].
